Experimental findings from ChEMBL document CHEMBL6182913, “Design of Potent Small-Molecule Stimulator of Interferon Gene Inhibitor and Stimulator of Interferon Gene Mutant-Specific Degrader” (J Med Chem, 2025) are described below.

In series [1] the target is Stimulator of interferon genes protein (Homo sapiens, UniProt Q86WV6, G230A/R293Q/R71H). The series can be described thus: Inhibition of cGAMP-induced STING HAQ mutant transfected in human THP1-Blue ISG cells preincubated with compound for 6 hrs followed by cGAMP addition and measured after 18 hrs by QUANTI-Blue based microplate reader analysis. Format: cell-based.
The nature of series [2]: Cytotoxicity against human THP1-Blue ISG cells assessed as inhibition of cell growth at 10 uM incubated for 24 hrs by MTS assay relative to control. Type of series: toxicity, cell-based. In general terms: Tetrazolium dyes change colour on reduction, which living cells bring about.

A value given as a limit tells only on which side of the number the result lay.

Stimulator of interferon genes protein, sequence (Q86WV6 whole entry R71H/G230A/R293Q): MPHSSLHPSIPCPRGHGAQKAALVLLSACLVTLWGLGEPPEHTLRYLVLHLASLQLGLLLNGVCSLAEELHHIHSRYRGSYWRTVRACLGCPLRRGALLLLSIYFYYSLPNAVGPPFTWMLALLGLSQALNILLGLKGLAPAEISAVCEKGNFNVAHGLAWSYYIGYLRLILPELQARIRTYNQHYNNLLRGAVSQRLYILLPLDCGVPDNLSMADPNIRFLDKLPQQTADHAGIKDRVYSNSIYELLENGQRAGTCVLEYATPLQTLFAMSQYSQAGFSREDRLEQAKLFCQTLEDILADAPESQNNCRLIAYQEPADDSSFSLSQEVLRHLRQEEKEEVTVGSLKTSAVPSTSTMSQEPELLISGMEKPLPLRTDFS

On to `CC(C)(C)c1ccc(N2C(=O)c3ccccc3C(C(N)=O)C2c2ccc3c(c2)C=C(c2ccc(C(=O)Nc4ccc(O)c(NS(C)(=O)=O)c4)cc2)S3(=O)=O)cc1Cl` (centres undefined), for which the IC50 in series [1] was more than 10000 nM. Further, the inhibition at 24 h, 10 µM in series [2] is 36.1%.
In the same order, the values of `CC(C)(C)c1ccc(N2C(=O)c3ccccc3C(C(N)=O)C2c2cc3cc(-c4ccc(NC(=O)c5cc(O)cc(NS(C)(=O)=O)c5)cc4)ccc3s2)cc1Cl` (centres undefined) are more than 10000 nM and 50.2%.
Consider `CC(C)(C)c1ccc(N2C(=O)c3cc(F)ccc3C(C(N)=O)C2c2ccc3sc(-c4ccc(C(=O)Nc5ccc(O)c(NS(C)(=O)=O)c5)cc4)cc3c2)cc1Cl` (centres undefined), for which, in series [1], the IC50 was found to be 950 nM. Besides, the inhibition at 24 h, 10 µM in series [2] came out at 7.7%.
In the same order, the values of `CC(C)(C)c1ccc(N2C(=O)c3cc(F)ccc3C(C(N)=O)C2c2cc3cc(-c4ccc(C(=O)Nc5ccc(O)c(NC(=O)C(F)(F)F)c5)cc4)ccc3s2)cc1Cl` (centres undefined) are 2300 nM and 12.5%.
In the same order, the values of `CC(C)(C)c1ccc(N2C(=O)c3ccccc3C(C(N)=O)C2c2cc3cc(-c4ccc(C(=O)Nc5cc(-c6ccco6)n[nH]5)cc4)ccc3o2)cc1Cl` (centres undefined) are more than 10000 nM and 17.8%.
For `CC(=O)Nc1cc(NC(=O)c2ccc(Oc3ccc(C4C(C(N)=O)c5ccccc5C(=O)N4c4ccc(C(C)(C)C)c(Cl)c4)cc3)cc2)ccc1C` (centres undefined) the same measures were more than 10000 nM and 11.6%.
Turning to `CC(C)(C)c1ccc(N2C(=O)c3ccccc3C(C(N)=O)C2c2ccc(Oc3ccc(C(=O)Nc4ccc(CO)c(NS(C)(=O)=O)c4)cc3)cc2)cc1Cl` (centres undefined), the IC50 in series [1] was more than 10000 nM. Besides, the inhibition at 24 h, 10 µM in series [2] turned out to be 0%.
Consider `CC(C)(C)c1ccc(N2C(=O)c3ccccc3C(C(N)=O)C2c2ccc(Oc3ccc(C(=O)Nc4cccc(NS(C)(=O)=O)c4)cc3)cc2)cc1Cl` (centres undefined), for which, in series [1], the IC50 was more than 10000 nM. The inhibition at 24 h, 10 µM in series [2] was 10.5%.
For `CC(C)(C)c1ccc(N2C(=O)c3ccccc3C(C(N)=O)C2c2ccc(Oc3ccc(C(=O)Nc4cc(F)c(O)c(F)c4)cc3)cc2)cc1Cl` (centres undefined), the IC50 in series [1] is 3200 nM. The inhibition at 24 h, 10 µM in series [2] came to 44.5%.
Turning to `CC(C)(C)c1ccc(N2C(=O)c3ccccc3C(C(N)=O)C2c2cc3cc(-c4ccc(C(=O)Nc5ccc(O)c(NS(C)(=O)=O)c5)cc4)ccc3s2)cc1Cl` (centres undefined), the IC50 in series [1] stood at 440 nM. Further, the inhibition at 24 h, 10 µM in series [2] was 15.9%.
Turning to `CC(C)(C)c1ccc(N2C(=O)c3ccccc3C(C(N)=O)C2c2ccc3sc(-c4ccc(C(=O)Nc5ccc(O)c(NS(C)(=O)=O)c5)cc4)cc3c2)cc1Cl` (centres undefined), the IC50 in series [1] was 180 nM. Further, the inhibition at 24 h, 10 µM in series [2] worked out at 3.9%.
In the same order, the values of `CS(=O)(=O)Nc1cc(NC(=O)c2ccc(-c3ccc4oc(C5C(C(N)=O)c6ccccc6C(=O)N5c5ccc6c(c5)CCCC6)cc4c3)cc2)ccc1O` (centres undefined) are 540 nM and 38.7%.
Take `CC(C)(C)c1ccc(N2C(=O)c3ccccc3C(C(N)=O)C2c2ccc(Oc3ccc(C(=O)Nc4ccc(O)c(NS(C)(=O)=O)c4)cc3)cc2)cc1Cl` (centres undefined): the IC50 in series [1] was more than 10000 nM. Also, in series [2], the inhibition at 24 h, 10 µM came out at 33.8%.
In the case of `CC(C)(C)c1ccc(N2C(=O)c3ccccc3C(C(N)=O)C2c2cc3cc(-c4ccc(C(=O)Nc5ccc(O)c(NS(=O)(=O)C(F)(F)F)c5)cc4)ccc3o2)cc1Cl` (centres undefined), in series [1], the IC50 is more than 10000 nM. In addition, the inhibition at 24 h, 10 µM in series [2] was 20.2%.
As for `CC(C)(C)c1ccc(N2C(=O)c3ccccc3C(C(N)=O)C2c2cc3cc(-c4ccc(C(=O)Nc5ccc(O)c(NS(C)(=O)=O)c5)cn4)ccc3o2)cc1Cl` (centres undefined), in series [1], the IC50 worked out at 140 nM. Besides, the inhibition at 24 h, 10 µM in series [2] turned out to be 45.7%.
With `CCC(=O)Nc1cc(NC(=O)c2ccc(Oc3ccc(C4C(C(N)=O)c5ccccc5C(=O)N4c4ccc(C(C)(C)C)c(Cl)c4)cc3)cc2)ccc1O` (centres undefined), in series [1], the IC50 is more than 10000 nM. Moreover, the inhibition at 24 h, 10 µM in series [2] was found to be 7.5%.
On to `CC(C)(C)c1ccc(N2C(=O)c3cc(F)ccc3C(C(N)=O)C2C2=Cc3cc(-c4ccc(C(=O)Nc5ccc(O)c(NS(C)(=O)=O)c5)cc4)ccc3S2(=O)=O)cc1Cl` (centres undefined), for which the IC50 in series [1] was determined as 720 nM. In addition, the inhibition at 24 h, 10 µM in series [2] was 12.7%.
For the molecule `CC(C)(C)c1ccc(N2C(=O)c3ccccc3C(C(=O)O)C2c2cc3cc(-c4ccc(C(=O)Nc5ccc(O)c(NS(C)(=O)=O)c5)cc4)ccc3s2)cc1Cl` (centres undefined), the IC50 in series [1] was more than 10000 nM. The inhibition at 24 h, 10 µM in series [2] turned out to be 0%.
For the molecule `CC(C)(C)c1ccc(N2C(=O)c3cc(F)ccc3C(C(N)=O)C2c2ccc3sc(-c4ccc(C(=O)Nc5ccc(O)c(NS(=O)(=O)C6CC6)c5)cc4)cc3c2)cc1Cl` (centres undefined), the IC50 in series [1] was more than 10000 nM. Further, the inhibition at 24 h, 10 µM in series [2] is 7.7%.
As for `CN1C(=O)c2ccccc2C(C(N)=O)C1c1cc2cc(-c3ccc(C(=O)Nc4ccc(O)c(NS(C)(=O)=O)c4)cc3)ccc2o1` (centres undefined), the IC50 in series [1] amounted to 6500 nM. Further, in series [2], the inhibition at 24 h, 10 µM was determined as 57.9%.
Regarding `CS(=O)(=O)Nc1cc(NC(=O)c2ccc(-c3ccc4oc(C5C(C(N)=O)c6ccccc6C(=O)N5c5ccc(C6CC6)cc5)cc4c3)cc2)ccc1O` (centres undefined), in series [1], the IC50 is 270 nM. Further, the inhibition at 24 h, 10 µM in series [2] stood at 25.6%.
On to `CC(C)(C)c1ccc(N2C(=O)c3ccccc3C(C(N)=O)C2c2ccc3oc(-c4ccc(C(=O)Nc5ccc(O)c(NS(C)(=O)=O)c5)cc4)cc3c2)cc1Cl` (centres undefined), for which the IC50 in series [1] came out at 2800 nM. For the same molecule, the inhibition at 24 h, 10 µM in series [2] was 14%.
For `CC(C)(C)c1ccc(N2C(=O)c3ccccc3C(C(N)=O)C2c2cc3cc(-c4ccc(C(=O)N[C@H]5CC[C@@H](O)CC5)cc4)ccc3o2)cc1Cl` (some centres undefined) the same measures were more than 10000 nM and 59.6%.
For `CC(C)(C)c1ccc(N2C(=O)c3ccccc3C(C(N)=O)C2c2ccc(Nc3ccc(C(=O)Nc4ccc(O)c(NS(C)(=O)=O)c4)cc3)cc2)cc1Cl` (centres undefined) the same measures were 3200 nM and 0%.
`CC(C)(C)c1ccc(N2C(=O)c3ccccc3C(C(N)=O)C2c2ccc(Oc3ccc(C(=O)Nc4ccc(O)cc4)cc3)cc2)cc1Cl` (centres undefined): the IC50 in series [1] is more than 10000 nM. In series [2], the inhibition at 24 h, 10 µM stood at 29.4%.
Turning to `CN(c1ccc(C(=O)Nc2ccc(O)c(NS(C)(=O)=O)c2)cc1)c1ccc(C2C(C(N)=O)c3ccccc3C(=O)N2c2ccc(C(C)(C)C)c(Cl)c2)cc1` (centres undefined), the IC50 in series [1] was 820 nM. Also, the inhibition at 24 h, 10 µM in series [2] was 1.2%.
Take `CC(C)(C)c1ccc(N2C(=O)c3cc(F)ccc3C(C(N)=O)C2c2ccc3sc(-c4ccc(C(=O)Nc5ccc(O)c(NS(C)(=O)=O)c5)cc4F)cc3c2)cc1Cl` (centres undefined): the IC50 in series [1] is 800 nM. The inhibition at 24 h, 10 µM in series [2] stood at 11.1%.
For `CC(C)(C)c1ccc(N2C(=O)c3ccccc3C(C(N)=O)C2c2cc3cc(-c4ccc(C(=O)Nc5ccc(N)c(NS(C)(=O)=O)c5)cc4)ccc3o2)cc1Cl` (centres undefined) the same measures were more than 10000 nM and 28.5%.
As for `CS(=O)(=O)Nc1cc(NC(=O)c2ccc(-c3ccc4oc(C5C(C(N)=O)c6ccccc6C(=O)N5c5ccc(Br)c(Cl)c5)cc4c3)cc2)ccc1O` (centres undefined), the IC50 in series [1] was 270 nM. Moreover, the inhibition at 24 h, 10 µM in series [2] came to 65.1%.
For `CS(=O)(=O)Nc1cc(NC(=O)c2ccc(-c3ccc4oc(C5C(C(N)=O)c6ccccc6C(=O)N5c5ccccc5)cc4c3)cc2)ccc1O` (centres undefined), the IC50 in series [1] turned out to be 3600 nM. Besides, the inhibition at 24 h, 10 µM in series [2] worked out at 23%.
For `CS(=O)(=O)Nc1cc(NC(=O)c2ccc(-c3ccc4oc(C5C(C(N)=O)c6ccccc6C(=O)N5c5ccc(C6CC6)c(Cl)c5)cc4c3)cc2)ccc1O` (centres undefined) the same measures were 110 nM and 61.5%.
As for `CC(C)(C)c1ccc(N2C(=O)c3ccccc3C(C(N)=O)C2c2cc3cc(-c4ccc(C(=O)NC5CCN(S(C)(=O)=O)CC5)cc4)ccc3o2)cc1Cl` (centres undefined), the IC50 in series [1] was more than 10000 nM. Further, the inhibition at 24 h, 10 µM in series [2] is 35.2%.
Take `CC(C)(C)c1ccc(N2C(=O)c3ccccc3C(C(N)=O)C2c2cc3cc(-c4ccc(C(=O)Nc5ccc(O)c(NS(C)(=O)=O)c5)cc4)ccc3o2)cc1F` (centres undefined): in series [1], the IC50 turned out to be 100 nM. For the same molecule, the inhibition at 24 h, 10 µM in series [2] is 55.6%.
As for `CC(C)(C)c1ccc(N2C(=O)c3ccccc3C(C(N)=O)C2c2cc3cc(-c4ccc(C(=O)Nc5ccc(F)c(NS(C)(=O)=O)c5)cc4)ccc3o2)cc1Cl` (centres undefined), the IC50 in series [1] was more than 10000 nM. In addition, the inhibition at 24 h, 10 µM in series [2] came out at 26.8%.
In the same order, the values of `CC(C)(C)c1ccc(N2C(=O)c3cc(F)ccc3C(C(N)=O)C2c2cc3cc(-c4ccc(C(=O)Nc5ccc(O)c(NS(C)(=O)=O)c5)cc4)ccc3s2)cc1Cl` (centres undefined) are 450 nM and 23.2%.
As for `CC(C)(C)c1ccc(N2C(=O)c3ccccc3C(C(N)=O)C2c2cc3cc(-c4ccc(C(=O)Nc5cc(O)cc(NS(C)(=O)=O)c5)cc4)ccc3o2)cc1Cl` (centres undefined), the IC50 in series [1] is more than 10000 nM. Further, the inhibition at 24 h, 10 µM in series [2] came to 46.2%.
As to `CC(C)(C)c1ccc(N2C(=O)c3ccccc3C(C(N)=O)C2c2cc3cc(-c4ccc(C(=O)Nc5ccc(O)c(NC(=O)C(F)(F)F)c5)cc4)ccc3o2)cc1Cl` (centres undefined), the IC50 in series [1] was found to be 5800 nM. In addition, the inhibition at 24 h, 10 µM in series [2] was found to be 4.9%.
For `CC(C)(C)c1ccc(N2C(=O)c3ccccc3C(C(N)=O)C2c2ccc(Oc3ccc(C(=O)Nc4ccc(NS(C)(=O)=O)cc4)cc3)cc2)cc1Cl` (centres undefined), the IC50 in series [1] was more than 10000 nM. The inhibition at 24 h, 10 µM in series [2] turned out to be 13.7%.
As to `CC(C)(C)c1ccc(N2C(=O)c3ccccc3C(C(N)=O)C2c2cc3cc(-c4ccc(C(=O)N[C@H]5CC[C@H](O)CC5)cc4)ccc3o2)cc1Cl` (some centres undefined), the IC50 in series [1] was more than 10000 nM. The inhibition at 24 h, 10 µM in series [2] turned out to be 67%.
In the case of `CC(C)(C)c1ccc(N2C(=O)c3cc(F)ccc3C(C(N)=O)C2c2ccc3sc(-c4ccc(C(=O)Nc5ccc(O)c(C(N)=O)c5)cc4)cc3c2)cc1Cl` (centres undefined), the IC50 in series [1] is more than 10000 nM. In series [2], the inhibition at 24 h, 10 µM worked out at 14.7%.
Turning to `CC(C)(C)c1ccc(N2C(=O)c3ccccc3C(C(N)=O)C2c2cc3cc(-c4ncc(C(=O)Nc5ccc(O)c(NS(C)(=O)=O)c5)cn4)ccc3o2)cc1Cl` (centres undefined), the IC50 in series [1] was more than 10000 nM. Moreover, the inhibition at 24 h, 10 µM in series [2] is 20.4%.
Regarding `CC(=O)Nc1cc(NC(=O)c2ccc(Oc3ccc(C4C(C(N)=O)c5ccccc5C(=O)N4c4ccc(C(C)(C)C)c(Cl)c4)cc3)cc2)ccc1O` (centres undefined), the IC50 in series [1] worked out at 2500 nM. In series [2], the inhibition at 24 h, 10 µM was 67.2%.

Usually IC50 stands for the concentration needed to halve the response being measured. What is called inhibition is the percentage by which the read-out fell short of the control.
